The subject of this experiment is IL-1β. The experiment can be described thus: MSU-induced rat air pouch model, IL-1β in exudate. It is filed as in vivo, SD rats. The note with it: FIG. 2. As to the method: Test Example 4 MSU-Induced Rat Air Pouch Model Test
Male SD rats were used in this experiment. After an adaptation period, a dorsal air pouch model was established. On the first, fourth and seventh days of the molding, 20 ml of sterile air was injected subcutaneously into the back of the rat with an injection needle to maintain the inflation of the air pouch. On the eighth day, different doses of the compound or vehicle control were administered by oral gavage. 25 mg of sodium urate suspension was injected into the dorsal air pouch, and 5 h later, the air pouch exudate was collected. The exudate was centrifuged at 1500 rpm for 20 min, and the supernatant was collected and the IL-Iβ production was detected by ELISA (R&D, Ra1 IL-1β kit).

For the compound `CC#Cc1ccc2c(-c3ccc(Cl)cc3O)nnc(NC[C@H](O)CO)c2c1` [Compound 062, (S)-3-((4-(4-chloro-2-hydroxyphenyl)-7-(prop-1-yn-1-yl)phthalazin-1-yl)amino) propan-1,2-diol], the “effect on IL-1β compared with colchicine and tofacitinib” value is “better than that of colchicine and tofacitinib”. Under “oral gavage, exudate 5 h after MSU”, the “production of IL-1β in the air pouch” value is “significantly inhibited the production of IL-1β in the air pouch”.
